In test [1] the target is T1, Aurora-A (Homo sapiens, UniProt O14965).
T1 sequence (O14965 1-403): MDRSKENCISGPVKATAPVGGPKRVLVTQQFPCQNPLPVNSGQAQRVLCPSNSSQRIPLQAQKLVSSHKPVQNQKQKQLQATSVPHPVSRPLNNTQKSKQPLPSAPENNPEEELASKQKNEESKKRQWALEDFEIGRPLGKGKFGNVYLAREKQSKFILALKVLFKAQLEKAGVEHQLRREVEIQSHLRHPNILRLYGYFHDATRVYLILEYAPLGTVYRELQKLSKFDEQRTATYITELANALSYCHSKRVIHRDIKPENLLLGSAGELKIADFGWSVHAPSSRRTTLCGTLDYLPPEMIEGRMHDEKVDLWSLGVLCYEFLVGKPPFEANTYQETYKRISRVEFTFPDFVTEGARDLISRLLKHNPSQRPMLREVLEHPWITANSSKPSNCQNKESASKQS
Put plainly: In vitro kinase assay Aurora A. The format is biochemical. The method, then: (§1) The inhibition of PLK1 kinase activity was assessed using the Cyclex PLK1 Assay/Inhibitor Screening Kit (MBL International Corporation, Japan). The kit includes anti-phospho-threonine polyclonal antibody (PPT-07) and peroxidase coupled anti-rabbit IgG antibody as a reporter in a 96-well ELSIA format. Compounds were used at the concentrations from 10^− ^3 to 10^2 µg/ml and the absorbance was determined at 450 nm. A similar protocol was used to determine the kinase inhibition for PLK2, PLK3, Aurora A and Aurora B. The kinase activity of CDK1/cyclinB and CDK2/cyclinE was analyzed in the presence of serially diluted inhibitors. For each reaction, 20 ng of recombinant kinase was used and […] casein from bovine milk (Sigma) was added as the kinase substrate. The kinase reaction buffer contains 8 mM MOPS pH7.0, 0.2 mM EDTA, 0.1 mg/ml histone H1, 10 mM and MgAcetace and [γ^− ^33P-ATP] (500 cpm/pmol). The reaction was initiated by adding the MgATP mix. After incubation for 40 minutes at room temperature, the reaction was stopped by the addition of 3% phosphoric acid solution. We spotted 10 µl of the reaction mixture onto a P30 filtermat and washed three times for 5 min with 75 mM phosphoric acid and once with methanol prior to drying and scintillation counting.

In test [2] the target is Aurora-B (Homo sapiens, UniProt Q96GD4). Briefly: In vitro kinase assay Aurora B. The format is biochemical. The method, then: as §1
Test [3] has as its system MRC5 cells. Briefly: FACS cell cycle analysis (PI), MRC5. As to conditions: 48 hr. The format is cell-based, Human. The method, then: It is well documented that PLK1 is involved in multiple steps in mitosis, such as centrosome maturation and establishment of bipolar spindle. […] Therefore, the down-regulation of PLK1 would change the distribution of cells in different cell cycle stages. To test this possibility, fluorescence-activated cell sorter (FACS) analysis was used to analyze the DNA content of HeLa cells treated with the identified PLK1 inhibitors, DH281, DH285, and DH287. HeLa cells were first incubated in the absence and presence of these compounds at different concentrations (0, 0.12, 0.48 and 1.92 µM) for 48 hr. […] Treatment with a lower concentration of the compounds (0.12 and 0.48 µM) also led to an obvious increase of the cell population in G2/M phase (Figure 4A, Table 3). Moreover, the proportion of HeLa cells in G2/M phase increased over time after incubation in the presence of 0.8 µM of DH281, DH285 and DH287 (Figure 4B, Table 4). […] We also determined the cell cycle distribution of the non-cancer MRC5 cells after treatment with DH281 at different concentrations. […] It is also possible that inhibition of the kinase activity of the whole PLK family by beta-carboline compounds results in the defect in cell cycle progression.
Tumor cells were exposed to vehicle (0.1% DMSO) or compounds at 0, 0.12, 0.48, and 1.92 µM for 48 hr or 0.8 µM for 24, 48, and 72 hr; MRC5 cells were exposed to compounds at 0, 0.12, 0.48, and 1.92 µM for 48 hr. The floated and attached cells were treated by trypsinization and washed with cold PBS. The cells were then fixed with 70% (v/v) ethanol at 4°C overnight. The fixed cells were washed twice with PBS and incubated with 50 µg/mL RNase A (Sigma, USA) and 50 µg/mL propidium iodide (PI) (Sigma, USA) at 37°C for 30 min.

What is called IC50 is the point on the concentration scale where inhibition reaches its midpoint. Low values mean higher potency, high ones lower potency.

Sequence of Aurora-B (Q96GD4 whole entry): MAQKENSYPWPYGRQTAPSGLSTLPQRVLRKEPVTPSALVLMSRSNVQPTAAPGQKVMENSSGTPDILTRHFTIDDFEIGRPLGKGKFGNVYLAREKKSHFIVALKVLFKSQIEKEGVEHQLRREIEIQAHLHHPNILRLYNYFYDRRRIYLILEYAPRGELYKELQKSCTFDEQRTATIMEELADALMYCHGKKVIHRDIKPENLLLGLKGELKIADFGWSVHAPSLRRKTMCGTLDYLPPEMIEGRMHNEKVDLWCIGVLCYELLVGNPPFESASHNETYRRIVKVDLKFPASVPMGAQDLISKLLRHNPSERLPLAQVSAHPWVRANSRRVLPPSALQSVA

`Cc1c2c(cc[n+]1Cc1ccccc1)c1ccc(OCc3ccccc3)cc1n2Cc1ccccc1` [DH287]: the IC50 in test [1] came out at 22.6 µM; in test [2] it was 24.7 µM.
As to `Cc1c2c(cc[n+]1Cc1ccccc1)c1ccc(OCc3ccc(F)cc3)cc1n2CCCc1ccccc1` [DH281], in test [3] (MRC5, 0.12 µM), the “cells in G1” value worked out at 75.3%, the “cells in G2 (G2/M)” value amounted to 15.5% and the “cells in S” value was found to be 9.18%. For the same compound, in test [3] (MRC5, 0.48 µM), the “cells in G1” value turned out to be 68.2%, the “cells in G2 (G2/M)” value amounted to 14.6% and the “cells in S” value is recorded as 17.3. %. In addition, in test [3] (MRC5, 1.92 µM), the “cells in G1” value is given as 59.3% and the “cells in S” value is given as 25.6%.

The values are drawn from PMC3463587, “A Series of Beta-Carboline Derivatives Inhibit the Kinase Activity of PLKs” (PLoS ONE, 2012).
